Test results published in paper PMC6778101 (Nature Communications, 2019).
Where two headings read alike, the source gives them in different places. Ends that are not written are not given here.

Assays:
Type in all cases: cell-based, Escherichia coli
[1] = tested on: E. coli K-12 BW25113 carrying ASKA plasmids; test: microbe, parasite or virus in culture; details: MS medium + 10 µg mL−1 CHL + 500 µM IPTG, 5 × 10^5 cells, 16–18 h, 37 °C; for MIC: Escherichia coli
Source text: Bacterial gene amplification generates extensive genetic variation that can provide drug resistance[37],[38]. As gene amplification events tend to be genetically unstable and reduce bacterial fitness, they are transient in nature. Using the ASKA library, which comprises each E. coli ORF cloned into an expression vector[40], we have conducted a global survey to evaluate whether artificially amplified genes provide resistance to any of the 14 AMPs and 11 antibiotics tested. As chloramphenicol (CHL) was used as a selection marker for the ASKA plasmid, this antibiotic was not tested in this screen. E. coli K-12 BW25113 cells were transformed with the pooled plasmids of the ASKA library, and the genetically mixed populations were exposed to increasing levels of AMP or antibiotic stresses, respectively. In all cases, the employed AMP or antibiotic dosages were above the MIC of the wild type. For each drug, we identified the MIC provided in the pooled ASKA plasmid library, and compared it to the MIC of the wild-type strain carrying the empty ASKA plasmid.
The ASKA library (a complete set of E. coli K-12 ORF archive) includes every E. coli ORF cloned into an expression vector (pCA24N)[65]. Prior to screening, the ASKA plasmid collection was pooled and transformed into E. coli K-12 BW25113 strain[66]. The plasmid pool was created by pooling an equal aliquot of cells, each carrying different members of the ASKA library, followed by plasmid miniprep. Next, the plasmid pool was electroporated into E. coli K-12 BW25113 competent cells. […] For the MICs measurements 500 000 cells were inoculated in each well which represents ~100 times coverage of each library member. […] Prior to the measurements the cell population containing the pooled overexpression library or the control strain containing the empty vector were grown in three replicates in LB medium supplemented with 20 µg/mL CHL. As the culture reached high density (i.e., OD600 > 0.8), expression of the plasmid was induced by 50 µM IPTG for 1 h. Following induction, 5 × 10^5 bacterial cells were inoculated in three replicates into each well of the 96-well plate and incubated for 16–18 h at 37 °C. Following incubation the MIC values were determined by measuring optical densities in a plate reader (Biotek Synergy).

E. coli K-12 BW25113 = test: microbe, parasite or virus in culture
Source text: Unless otherwise indicated, Minimal Salt (MS) medium was used in all experiments, including the laboratory evolution experiments. In line with previous, methodologically relevant laboratory evolution studies, the physical conditions (including the medium) were the same during the course of laboratory evolution and all forthcoming assays on the resulting resistant lines (e.g. MIC measurements). We previously optimized this medium for studying AMPs (1 g L^−1 (NH4)2SO4, 3 g L^−1 KH2PO4 and 7 g L^−1 K2HPO4 supplemented with 0.1 mM MgSO4, 0.54 µg mL^−1 FeCl3, 1 µg mL^−1 thiamine hydrochloride, 0.2% Casamino acids and 0.2% glucose)[19]. This medium is highly controlled and provides a reproducible environment for experimental evolution experiments. All components were obtained from Sigma-Aldrich.
MICs were determined using a standard serial broth dilution technique. Briefly, 11-step serial dilutions were prepared in 96-well microtiter plates with three replicates per strain and antimicrobial compound. Each experiment was repeated at least twice. 5 × 10^5 cells/mL were inoculated into each well, and the plates were incubated at 30 °C in case of E. coli K-12 BW25113, and its antibiotic and AMP-adapted lines, or 37 °C in case of the other bacterial species. […] Cell growth was monitored by measuring the optical density (OD600 value, Biotek Synergy 2 microplate reader was used for this purpose). […] Relative MIC was calculated as follows: MICrelative = MICevolved/MICcontrol.

[2] = tested on: antibiotic- and AMP-adapted E. coli K-12 BW25113 lines; test: High-throughput fitness measurement of adapted lines (area under growth curve, drug-free medium); details: adapted line APC1
Source text: We estimated fitness by measuring growth of these strains and the corresponding wild-type in antibiotic-free medium (“Methods”). […] As might be expected, fitness costs varied substantially across antibiotics and AMPs (Fig. 1b). […] This pattern is unlikely to reflect differences in the level of resistance between AMP and antibiotic strains, respectively. There is only a weak, marginally significant negative correlation between the level of resistance and fitness cost (Supplementary Fig. 1, Spearman’s rho = −0.24, P = 0.016 (N = 98)), and this correlation becomes non-significant after controlling for drug type (P = 0.6 and P = 0.39 for antibiotics (N = 60) and AMPs (N = 38) respectively, Spearman’s correlation).
Bacterial cell growth was assayed by continuously monitoring the optical density (OD600) of liquid cultures using 384-well microtiter plates containing MS medium, the same medium used during the laboratory evolution. Fitness was measured for a total of 60 antibiotic-adapted and the 38 AMP-adapted E. coli K-12 BW25113 lines (at least four lines per antibiotic or AMP). All measurements were performed twice (six technical replicates per experiment). Starter cultures were inoculated into 96-well plates containing MS medium and incubated for 20 h at 30 °C for E. coli K-12 BW25113 and its evolved lines. After this growth period, the OD600 of each culture was read and the starting cell number set to a final of 50,000 cells per well to a final volume of 60 µl. A total of 384-well plates were inoculated combining four different 96-well starter plates together: one plate having the unevolved wild-type control as a reference strain in all wells in order to estimate possible variation in growth within-plate measurement causing biases to the reading, and three plates containing the different set of antibiotic or AMP-adapted lines. Cell growth was monitored by measuring the optical density at 600 nm every 5 min (OD600 value, Biotek Synergy 2 microplate reader was used for this purpose). The integral data was calculated by the Biotek Gen5 Data Analysis Software between 1 and 24 h in case of E. coli K-12 BW25113 adapted lines. Because of possible influence of temperature equilibration in the first hour of measurement, this time period was excluded from the analysis.

E.coli K-12 BW25113 = details: for MIC (freshly prepared AMP): plates inoculated immediately; for MIC (pre-incubated AMP): plates pre-incubated 72 hours before inoculation
Protocol: MICs were determined using a standard serial broth dilution technique. Briefly, 11-step serial dilutions were prepared in 96-well microtiter plates with three replicates per strain and antimicrobial compound. Each experiment was repeated at least twice. 5 × 10^5 cells/mL were inoculated into each well, and the plates were incubated at 30 °C in case of E. coli K-12 BW25113, and its antibiotic and AMP-adapted lines, or 37 °C in case of the other bacterial species. Plates were shaken at 300 r.p.m. during incubation for 24 and 18 h, respectively. Cell growth was monitored by measuring the optical density (OD600 value, Biotek Synergy 2 microplate reader was used for this purpose). […] Relative MIC was calculated as follows: MICrelative = MICevolved/MICcontrol.
Supplementary Table 7- Effect of incubation time on the minimum inhibitory concentration (MIC) of AMPs. We tested whether the prolonged incubation time can affect the MIC of AMPs. To test this, two sets of AMP containing MIC plates were prepared in parallel. The first set was immediately inoculated with E.coli K-12 BW25113, while the second set was pre-incubated 72 hours before inoculation with the […]
observed in the MIC between freshly prepared and pre-incubated plates. […]

[3] = replicate 1 (first line of the sheet)
[4] = time allowed for bacterial growth 48 hours
[5] = time allowed for bacterial growth 24 hours
[6] = time allowed for bacterial growth 72 hours
[7] = starting wild-type strain of the evolution experiment, broth dilution, MS medium, 5 × 10^5 cells/mL, 30 °C, 24 h, MIC = OD600 < 0.05

## CC1(C)S[C@@H]2[C@H](NC(=O)[C@H](N)c3ccccc3)C(=O)N2[C@H]1C(=O)O [APC, Ampicillin]
[1]; BW25113, Replicate 1, read-out: MIC value of E. coli K-12 BW25113 carrying the empty plasmid of the ASKA library
  MIC: 4 µg/mL
[1]; BW25113, Replicate 1, read-out: MIC value of E. coli K-12 BW25113 carrying the pooled plasmids of the ASKA library
  MIC: 256 µg/mL
[1]; BW25113, Replicate 2, read-out: MIC value of E. coli K-12 BW25113 carrying the empty plasmid of the ASKA library
  MIC: 4 µg/mL
[1]; BW25113, Replicate 2, read-out: MIC value of E. coli K-12 BW25113 carrying the pooled plasmids of the ASKA library
  MIC: 256 µg/mL
[1]; BW25113, Replicate 3, read-out: MIC value of E. coli K-12 BW25113 carrying the empty plasmid of the ASKA library
  MIC: 4 µg/mL
[1]; BW25113, Replicate 3, read-out: MIC value of E. coli K-12 BW25113 carrying the pooled plasmids of the ASKA library
  MIC: 256 µg/mL
E. coli K-12 BW25113; Escherichia coli, BW25113, 24 h, read-out: MIC
  MIC: 6.2 µg/mL
[2]; [3]
  integral (measured integral data): 10905.8
  normalized integral (integral normalized to wild-type): 0.2843
[2]; replicate 2
  integral (measured integral data): 12217.4
  normalized integral (integral normalized to wild-type): 0.3185
[2]; replicate 3
  integral (measured integral data): 11200
  normalized integral (integral normalized to wild-type): 0.292
[2]; replicate 4
  integral (measured integral data): 11338.5
  normalized integral (integral normalized to wild-type): 0.2956
[2]; replicate 5
  integral (measured integral data): 13182.1
  normalized integral (integral normalized to wild-type): 0.3436

## CC[C@H](C)[C@H](NC(=O)[C@H](CCCCN)NC(=O)[C@H](CCC(=O)O)NC(=O)[C@H](CCCCN)NC(=O)[C@H](CO)NC(=O)[C@H](CCCCN)NC(=O)[C@H](CCCNC(=N)N)NC(=O)[C@H](Cc1ccccc1)NC(=O)[C@H](Cc1ccccc1)NC(=O)[C@H](CC(=O)O)NC(=O)CNC(=O)[C@H](CC(C)C)NC(=O)[C@@H](N)CC(C)C)C(=O)NCC(=O)N[C@@H](CCCCN)C(=O)N[C@@H](CCC(=O)O)C(=O)N[C@@H](Cc1ccccc1)C(=O)N[C@@H](CCCCN)C(=O)N[C@@H](CCCNC(=N)N)C(=O)N[C@H](C(=O)N[C@H](C(=O)N[C@@H](CCC(N)=O)C(=O)N[C@@H](CCCNC(=N)N)C(=O)N[C@H](C(=O)N[C@@H](CCCCN)C(=O)N[C@@H](CC(=O)O)C(=O)N[C@@H](Cc1ccccc1)C(=O)N[C@@H](CC(C)C)C(=O)N[C@@H](CCCNC(=N)N)C(=O)N[C@@H](CC(N)=O)C(=O)N[C@@H](CC(C)C)C(=O)N[C@H](C(=O)N1CCC[C@H]1C(=O)N[C@@H](CCCNC(=N)N)C(=O)N[C@H](C(=O)N[C@@H](CCC(=O)O)C(=O)N[C@@H](CO)C(=O)O)[C@@H](C)O)C(C)C)[C@@H](C)CC)C(C)C)[C@@H](C)CC [LL37, cathelicidin antimicrobial peptide LL-37]
[1]; Replicate 1
  MIC value of E. coli K-12 BW25113 carrying the empty plasmid of the ASKA library: 14.45 µg/mL
  MIC value of E. coli K-12 BW25113 carrying the pooled plasmids of the ASKA library: 14.45 µg/mL
[1]; Replicate 2
  MIC value of E. coli K-12 BW25113 carrying the empty plasmid of the ASKA library: 12.04 µg/mL
  MIC value of E. coli K-12 BW25113 carrying the pooled plasmids of the ASKA library: 17.34 µg/mL
[1]; Replicate 3
  MIC value of E. coli K-12 BW25113 carrying the empty plasmid of the ASKA library: 14.45 µg/mL
  MIC value of E. coli K-12 BW25113 carrying the pooled plasmids of the ASKA library: 14.45 µg/mL
E.coli K-12 BW25113; [4]
  MIC (freshly prepared AMP): 17.4 µg/mL
  MIC (pre-incubated AMP): 17.4 µg/mL
E.coli K-12 BW25113; [5]
  MIC (pre-incubated AMP): 17.4 µg/mL
E.coli K-12 BW25113; [6]
  MIC (pre-incubated AMP): 17.4 µg/mL
E. coli K-12 BW25113; [7]
  MIC: 100 µg/mL

## RFRPPIRRPPIRPPFYPPFRPPIRPPIFPPIRPPFRPPLGPFP [BAC5, Bactenecin 5]
[1]; Replicate 1
  MIC value of E. coli K-12 BW25113 carrying the empty plasmid of the ASKA library: 5.79 µg/mL
  MIC value of E. coli K-12 BW25113 carrying the pooled plasmids of the ASKA library: 4.82 µg/mL
[1]; Replicate 2
  MIC value of E. coli K-12 BW25113 carrying the empty plasmid of the ASKA library: 5.79 µg/mL
  MIC value of E. coli K-12 BW25113 carrying the pooled plasmids of the ASKA library: 5.79 µg/mL
[1]; Replicate 3
  MIC value of E. coli K-12 BW25113 carrying the empty plasmid of the ASKA library: 5.79 µg/mL
  MIC value of E. coli K-12 BW25113 carrying the pooled plasmids of the ASKA library: 4.82 µg/mL
E.coli K-12 BW25113; [5]
  MIC (freshly prepared AMP): 14.5 µg/mL
  MIC (pre-incubated AMP): 14.5 µg/mL
E.coli K-12 BW25113; [4]
  MIC (freshly prepared AMP): 14.5 µg/mL
  MIC (pre-incubated AMP): 14.5 µg/mL
E.coli K-12 BW25113; [6]
  MIC (freshly prepared AMP): 14.5 µg/mL
  MIC (pre-incubated AMP): 14.5 µg/mL
E. coli K-12 BW25113; [7]
  MIC: 7 µg/mL
